The text below walks through data of PubChem BioAssay (NCI).

Some test systems named below: M14 melanoma; U251 CNS; LOX IMVI melanoma; NCI-H23 lung; UACC-62 melanoma; ACHN renal; OVCAR-3 ovarian; OVCAR-8 ovarian; PC-3 prostate; SK-MEL-5 melanoma; OVCAR-5 ovarian; MALME-3M melanoma; EKVX NSCLC; TK-10 renal; SNB-75 CNS; A498 renal; SF-295 CNS.
Holding throughout (experiment): NCI tumour cell line growth inhibition, 48 h

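Cells were grown in 96-well plates and exposed to each compound for 48 hours at five concentrations; endpoints were interpolated linearly between bracketing concentrations, or set to the highest concentration if not reached. TGI is the concentration that stops growth completely.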 Bounds are passed on as bounds.

Consider `Cc1cc(=O)[nH]c2cc(NC(=O)C(CCCN=C(N)N)NC(=O)OCc3ccccc3)ccc12` (stereo unspecified), for which the TGI in the assay with M14 melanoma, in the assay on U251 CNS, with LOX IMVI melanoma, in the assay on NCI-H23 lung, in the assay with UACC-62 melanoma and in the assay on ACHN renal was greater than 100 µM in each case. Besides, the TGI in the assay with OVCAR-3 ovarian, with OVCAR-8 ovarian, with PC-3 prostate, in the assay on SK-MEL-5 melanoma, in the assay with OVCAR-5 ovarian and in the assay with MALME-3M melanoma was greater than 100 µM in each case. Also, the TGI with EKVX NSCLC, in the assay with TK-10 renal, in the assay on SNB-75 CNS, in the assay on A498 renal and with SF-295 CNS was greater than 100 µM each time.
In the case of `O=C(O)CC1NC(/C(=C/c2ccccc2O)NC(=O)c2ccccc2)OC1=O` (stereo unspecified), the TGI in the assay on M14 melanoma was greater than 100 µM; with U251 CNS, greater than 80.8 µM; in the assay on LOX IMVI melanoma, greater than 100 µM; in the assay on NCI-H23 lung, greater than 100 µM; in the assay on UACC-62 melanoma, greater than 100 µM; in the assay with ACHN renal, greater than 51 µM. In addition, the TGI in the assay with OVCAR-3 ovarian is greater than 61.2 µM; in the assay on OVCAR-8 ovarian, greater than 87.8 µM; in the assay with PC-3 prostate, greater than 100 µM; in the assay with SK-MEL-5 melanoma it was greater than 100 µM; in the assay with OVCAR-5 ovarian, greater than 100 µM; in the assay on MALME-3M melanoma, greater than 100 µM. For the same molecule, the TGI was greater than 100 µM in the assay on EKVX NSCLC; greater than 100 µM in the assay with TK-10 renal; greater than 63.6 µM in the assay on SNB-75 CNS; greater than 100 µM in the assay with A498 renal; greater than 95.7 µM in the assay with SF-295 CNS.
As for `COc1cccc(CCNc2c(C#N)c3nc4ccccc4n3c3ccccc23)c1`, the TGI in the assay with M14 melanoma is greater than 100 µM; in the assay with U251 CNS, greater than 100 µM; with LOX IMVI melanoma, greater than 100 µM; in the assay with NCI-H23 lung it was greater than 30.5 µM; in the assay with UACC-62 melanoma it was greater than 100 µM; with ACHN renal it was greater than 100 µM. Moreover, the TGI with OVCAR-3 ovarian was greater than 100 µM; in the assay with OVCAR-8 ovarian it was greater than 100 µM; in the assay on PC-3 prostate it was greater than 100 µM; with SK-MEL-5 melanoma, 0.872 µM; with OVCAR-5 ovarian, greater than 100 µM; in the assay on MALME-3M melanoma, greater than 100 µM. In addition, the TGI with EKVX NSCLC is greater than 100 µM; with TK-10 renal, greater than 100 µM; in the assay with SNB-75 CNS it was greater than 58 µM; in the assay with A498 renal it was greater than 26.2 µM; in the assay on SF-295 CNS it was greater than 100 µM.
In the case of `CCOC(=O)C1C(c2ccc(O)c(OC)c2)c2c([nH][nH]c2=O)CC1(C)O` (stereo unspecified), the TGI in the assay with M14 melanoma, with U251 CNS, with LOX IMVI melanoma, in the assay with NCI-H23 lung, in the assay on UACC-62 melanoma and in the assay with ACHN renal was greater than 100 µM throughout. Further, the TGI in the assay with OVCAR-3 ovarian, in the assay on OVCAR-8 ovarian, in the assay on PC-3 prostate, with SK-MEL-5 melanoma, in the assay on OVCAR-5 ovarian and with MALME-3M melanoma was greater than 100 µM each time. The TGI in the assay with EKVX NSCLC, in the assay on TK-10 renal, in the assay on SNB-75 CNS, with A498 renal and in the assay on SF-295 CNS was greater than 100 µM in each case.
As to `COc1cc(OC)c2c(=O)c(OC)c(-c3ccc4c(c3)OCO4)oc2c1OC`, the TGI with M14 melanoma, in the assay with U251 CNS, with LOX IMVI melanoma, in the assay on NCI-H23 lung, in the assay on UACC-62 melanoma and in the assay on ACHN renal was greater than 100 µM throughout. Besides, the TGI in the assay on OVCAR-3 ovarian is greater than 100 µM; in the assay with OVCAR-8 ovarian, greater than 100 µM; with PC-3 prostate it was greater than 100 µM; with SK-MEL-5 melanoma, 89.8 µM; in the assay on OVCAR-5 ovarian, greater than 100 µM; with MALME-3M melanoma, greater than 100 µM. Besides, the TGI in the assay on EKVX NSCLC, in the assay on TK-10 renal, in the assay with SNB-75 CNS, in the assay on A498 renal and in the assay with SF-295 CNS was greater than 100 µM in each case.
Consider `N#CCOc1ccc(/C=C/C(=O)c2ccc(Cl)cc2)cc1`, for which the TGI is greater than 100 µM with M14 melanoma; 99.3 µM in the assay on U251 CNS; 37.5 µM with LOX IMVI melanoma; 76.3 µM in the assay on NCI-H23 lung; 41.6 µM in the assay with UACC-62 melanoma; greater than 100 µM in the assay on ACHN renal. In addition, the TGI is greater than 100 µM with OVCAR-3 ovarian; 93.6 µM in the assay on OVCAR-8 ovarian; greater than 100 µM in the assay with PC-3 prostate; 43.6 µM in the assay with SK-MEL-5 melanoma; greater than 100 µM in the assay on OVCAR-5 ovarian; 58.4 µM in the assay with MALME-3M melanoma. Also, the TGI with EKVX NSCLC is greater than 100 µM; in the assay with TK-10 renal, 74.5 µM; with SNB-75 CNS, 37.2 µM; in the assay with A498 renal, 49.5 µM; in the assay with SF-295 CNS, 53.9 µM.
As for `CC(=O)Oc1c2c(c(CC=C(C)C)c3c1C(=O)C1=C[C@@H]4CC5C(C)(C)OC(C/C=C(/C)C(=O)O)(C4=O)[C@@]15O3)OC(C)(CCC=C(C)C)C=C2` (stereo partly specified), the TGI worked out at 0.814 µM with M14 melanoma; 0.339 µM in the assay with U251 CNS; 0.247 µM in the assay with LOX IMVI melanoma; 1.01 µM in the assay on NCI-H23 lung; 0.86 µM in the assay with UACC-62 melanoma; 0.279 µM in the assay with ACHN renal. The TGI is 0.922 µM in the assay with OVCAR-3 ovarian; 0.747 µM in the assay on OVCAR-8 ovarian; 1.24 µM with PC-3 prostate; 0.737 µM in the assay on SK-MEL-5 melanoma; 1.16 µM with OVCAR-5 ovarian; 0.558 µM in the assay with MALME-3M melanoma. Moreover, the TGI turned out to be 0.839 µM in the assay on EKVX NSCLC; 0.585 µM in the assay on TK-10 renal; 1.39 µM with SNB-75 CNS; 1.82 µM in the assay on A498 renal; 1.67 µM with SF-295 CNS.
`CCOC(=O)CSc1nnc(CSc2nc(-c3ccccc3)c(-c3ccccc3)[nH]2)n1-c1ccccc1`: the TGI in the assay with M14 melanoma is greater than 62.4 µM; in the assay with U251 CNS, greater than 100 µM; with LOX IMVI melanoma, greater than 100 µM; in the assay with NCI-H23 lung, greater than 100 µM; with UACC-62 melanoma, 71.6 µM; in the assay on ACHN renal, 35.5 µM. Further, the TGI is greater than 100 µM in the assay with OVCAR-3 ovarian; 35.3 µM in the assay with OVCAR-8 ovarian; 43.8 µM in the assay with PC-3 prostate; greater than 100 µM in the assay with SK-MEL-5 melanoma; greater than 100 µM in the assay on OVCAR-5 ovarian; greater than 100 µM with MALME-3M melanoma. The TGI is greater than 100 µM in the assay on EKVX NSCLC; 31.9 µM in the assay with TK-10 renal; greater than 100 µM in the assay on SNB-75 CNS; 33.2 µM with A498 renal; greater than 100 µM with SF-295 CNS.
Turning to `Cc1ccc(Nc2[nH]c(=O)[nH]c(=O)c2C)cc1Cl`, the TGI with M14 melanoma, in the assay on U251 CNS, in the assay with LOX IMVI melanoma, in the assay with NCI-H23 lung, with UACC-62 melanoma and in the assay on ACHN renal was greater than 100 µM throughout. Further, the TGI in the assay with OVCAR-3 ovarian, in the assay with OVCAR-8 ovarian, in the assay with PC-3 prostate, in the assay on SK-MEL-5 melanoma, with OVCAR-5 ovarian and with MALME-3M melanoma was greater than 100 µM in each case. For the same molecule, the TGI with EKVX NSCLC is greater than 100 µM; in the assay with TK-10 renal it was greater than 100 µM; with SNB-75 CNS, greater than 100 µM; in the assay on A498 renal it was greater than 100 µM; in the assay on SF-295 CNS it was 72.3 µM.
For the molecule `Cc1cc(S(=O)(=O)NC2=NC(c3ccccc3)c3cc(Cl)ccc3N2)c(S)cc1Cl` (stereo unspecified), the TGI in the assay with M14 melanoma, in the assay with U251 CNS, in the assay with LOX IMVI melanoma, in the assay with NCI-H23 lung, with UACC-62 melanoma and with ACHN renal was greater than 100 µM throughout. Moreover, the TGI in the assay with OVCAR-3 ovarian, with OVCAR-8 ovarian, in the assay on PC-3 prostate, in the assay on SK-MEL-5 melanoma, in the assay with OVCAR-5 ovarian and in the assay on MALME-3M melanoma was greater than 100 µM each time. Besides, the TGI in the assay with EKVX NSCLC, in the assay with TK-10 renal, in the assay on SNB-75 CNS, in the assay on A498 renal and in the assay with SF-295 CNS was greater than 100 µM in each case.
In the case of `CC(C)(C)OC(=O)NCCC(=O)NC1(c2cc3ccccc3s2)CCCCC1`, the TGI with M14 melanoma was 34.2 µM; with U251 CNS, 37.7 µM; with LOX IMVI melanoma, 36.5 µM; in the assay with NCI-H23 lung it was 31.4 µM; in the assay on UACC-62 melanoma it was 49.1 µM; in the assay with ACHN renal, 61.4 µM. For the same molecule, the TGI in the assay with OVCAR-3 ovarian was 33.2 µM; with OVCAR-8 ovarian, 35.8 µM; with PC-3 prostate, 37 µM; in the assay on SK-MEL-5 melanoma, 25.9 µM; in the assay with OVCAR-5 ovarian, 39.9 µM; in the assay on MALME-3M melanoma, 37.5 µM. Besides, the TGI was found to be 50.6 µM in the assay on EKVX NSCLC; 55.4 µM in the assay on TK-10 renal; 38.7 µM with SNB-75 CNS; 45.4 µM in the assay with A498 renal; 36.5 µM in the assay with SF-295 CNS.
Consider `CN(C)CC1CCC/C(=C\c2ccc(OC(=O)/C=C/c3ccccc3)cc2)C1=O` (stereo unspecified), for which the TGI in the assay with M14 melanoma is 5.35 µM; in the assay on U251 CNS, 3.84 µM; in the assay on LOX IMVI melanoma it was 1.7 µM; in the assay on NCI-H23 lung, 4.04 µM; with UACC-62 melanoma, 15.8 µM; in the assay on ACHN renal, 6.62 µM. In addition, the TGI stood at 3.63 µM with OVCAR-3 ovarian; 3.9 µM in the assay with OVCAR-8 ovarian; 19.5 µM in the assay with PC-3 prostate; 12.9 µM in the assay on SK-MEL-5 melanoma; 7.24 µM with OVCAR-5 ovarian; 5.02 µM in the assay with MALME-3M melanoma. The TGI with EKVX NSCLC came out at 4.89 µM; with TK-10 renal, 3.76 µM; with SNB-75 CNS, 17 µM; in the assay on A498 renal it was 23.2 µM; in the assay on SF-295 CNS it was 13.7 µM.
Turning to `NNC1=N/C(=C\c2ccco2)C(=O)N1`, the TGI in the assay on M14 melanoma, with U251 CNS, in the assay with LOX IMVI melanoma, in the assay with NCI-H23 lung, in the assay with UACC-62 melanoma and in the assay with ACHN renal was greater than 100 µM each time. For the same molecule, the TGI in the assay with OVCAR-3 ovarian, in the assay with OVCAR-8 ovarian, in the assay with PC-3 prostate, with SK-MEL-5 melanoma, in the assay with OVCAR-5 ovarian and in the assay with MALME-3M melanoma was greater than 100 µM throughout. For the same molecule, the TGI in the assay with EKVX NSCLC, in the assay on TK-10 renal, with SNB-75 CNS, in the assay on A498 renal and in the assay on SF-295 CNS was greater than 100 µM throughout.
